One data set relates to hPDLSCs. In words: Proliferation assay with LXA4 released from PEO/PDLLA membrane. The format is cell-based, Human. The settings on record: LXA4 eluted from PEO/PDLLA membranes in PBS. How it is done: Bioptic samples of periodontal ligament were obtained from volunteers aged 20-35 years, exempt from systemic or oral disease, after undesigning the informed consent deed. The study was approved by the Medical Ethic Committee of the "G. D'Annunzio" University, Chieti, Italy (n°266/17.04.14). The periodontal tissue obtained by bioptic samples, grinded and washed several times with PBS (Lonza, Basel, Switzerland) was cultured using TheraPEAK™MSCGM-CD™ BulletKit serum free (MSCGM-CD) medium for the growth of human mesamchimal steam cells (MSCGM-CD) (Lonza), to minimize the exposure to substances of non-human origin. Human periodontal ligament stem cells (hPDLSCs) were obtained and cultured as reported in Trubiani O, Piattelli A, Gatta V, Marchisio M, Diomede F, D'Aurora M, et al. Assessment of an efficient xeno-free culture system of human periodontal ligament stem cells. […]
For the proliferation assay with LXA4 released from PEO/PDLLA membrane, hPDLSCs (2 x 10^3 cells/well) were seeded in 96-well microplates with complete medium overnight at 37 °C and 5%CO2. […] Data were expressed as proliferation index, calculated as the ratio between values from cells exposed to membrane-eluted LXA4 and from cells exposed to vehicle only (ethanol) of LXA4. […]
The proliferation and migration of hPDLSC growth a direct contact with fragment of LXA4-loaded membrane were evaluated. […]

The nature of data set [1]: Release of LXA4 from PEO/PDLLA membranes in PBS, RP-HPLC. The format is physicochemical. How it is done:
The release of LXA4 from the membrane was evaluated using phosphate-buffered saline solution (PBS) (pH 7.4, at 37°C). Pieces (3 cm x 2.5 cm, ∼33 mg, sample) of membranes, empty or LXA4-loaded, were placed in 100 mm dishes containing PBS (8 mL) and maintained at 37 °C, 5% CO2 and 95% humidity for 1, 3, 18, 48, 72 and 96 h. LXA4 release was assessed by HPLC analysis after solid phase extraction. Following incubation with PBS, membranes were diluted with 2 volumes of cold MeOH and stored at -80°C until extraction. All samples were extracted using C-18 cartridges (Bond Elut Varian, Agilent Technologies, Milan) as previously described (Romano M, Luciotti G, Gangemi S, Marinucci F, Prontera C, D'Urbano E, et al. Urinary excretion of lipoxin A(4) and related compounds: development of new extraction techniques for lipoxins. Laboratory investigation; a journal of technical methods and pathology. 2002;82(9):1253-4). Before extraction, PGB2 (50 ng/sample) was added to each sample as internal standard to calculate extraction recovery. Samples were then taken to dryness using a rotary evaporator, suspended in 10 mL of deionized (dd) H2O containing MeOH, acidified to pH 3.5 and rapidly loaded onto C-18 columns previously equilibrated with MeOH and (dd) H2O. After sample loading, columns were washed with (dd) H2O to restore a neutral pH. Samples were eluted with 7 mL of methyl formate and taken to dryness using a Speedvac apparatus. The dried samples were then suspended in MeOH (100 µl) and injected into an HPLC apparatus (Agilent 1100) equipped reverse phase-HPLC with a Hypersil C-18 column (300 mm x 4 mm x 5 µm, Waters) and a photodiode array detector (Waters) for online UV spectroscopy. LXA4 was identified by UV spectroscopy and considering the chromatographic retention time.
LXA4 releasing from the PEO/PDLLA membranes was investigated by incubating membranes with a PBS solution at pH 7.4 for varying times. LXA4 was quantitated by RP-HPLC. […] The maximum release was observed after 48 h (17%), followed by a progressive decrement at 72 h and 96 h (around 11%). Approximately 25% of LXA4 was recovered as trans isomer, in line with the content of Romano M, Serhan CN. Lipoxin generation by permeabilized human platelets. Biochemistry.

From EP3246445A1, “LIPOXIN A4 DELIVERY SYSTEM BY A POROUS ELECTROSPUN POLYMERIC MEMBRANE” (Universita' Degli Studi G. D Annunzio Chieti - Pescara, priority 2016, dated 2017) come the findings set out here.

For the compound `CCCCC[C@H](O)/C=C/C=C\C=C\C=C\[C@@H](O)[C@@H](O)CCCC(=O)O` [LXA4, Lipoxin A4], in the data set on hPDLSCs, the “biological activities on hPDLSCs after release” value is “retained its biological activities on hPDLSCs”. The LXA4 released result in data set [1] (PBS pH 7.4, 37 °C, 72 h) was “around 11%”; in data set [1] (PBS pH 7.4, 37 °C, 96 h) it was “around 11%”. In data set [1] (PBS pH 7.4, 37 °C, after 48 h), the “LXA4 released, maximum release” value is reported as 17%. Further, the “LXA4 released, of the total LXA4 added to membranes” value in data set [1] (PBS pH 7.4, 37 °C, within 3 h) was “approximately 15%”. For the same compound, the “LXA4 recovered as trans isomer” value in data set [1] (of the total LXA4 eluted from the membranes) is “Approximately 25%”.
